Assays:
[1] = test system: AKT Ser473 phosphorylation; experiment: Phosphorylated AKT (Ser473) inhibitory activity in cultured cell A2780 (Meso Scale Discovery assay); format: cell-based; details: A2780 cells, 3 hours treatment; average±standard deviation of three independent runs
Description: (§1) To evaluate the inhibitory activity of the above compounds against AKT activity, AKT Ser 473 phosphorylation and phosphorylation of S6 ribosomal protein (S6RP) (a downstream factor of Akt signal) at Ser240/Ser244, which serve as indices for the activation status of AKT, were measured in extracts of cultured cells which had been treated with the above compounds. For the measurement, assays (manufactured by Meso Scale Discovery) utilizing electrochemiluminescence based on the ELISA principle were used for both AKT Ser473 and S6RP Ser240/Ser244.
(§2) In 10% FBS-containing RPMI1640 medium (Invitrogen), ovarian cancer-derived A2780 cells in the logarithmic growth phase were seeded at 4.5×10^4 cells/150 μL/well into polylysine coated 96-well flat-bottom plates, and cultured for one day in an incubator at 5% CO2, 37° C., and 100% humidity.
(§3) Each compound of the present invention was supplied as a stock solution prepared at a concentration of 10 mM in DMSO. Using this solution, a dilution series was prepared in DMSO solvent at 200-fold of the final concentrations (10, 3, 1, 0.3, 0.1, 0.03, 0.01, 0.003 μM). The day after the cells were seeded, the compound dilution series at a 200-fold concentration was diluted 50-fold in medium for cell culture. To each well of the aforementioned A2780 cell culture plates, 50 μL of the diluted compound dilution series was added. The plates were then placed back in the incubator, and the culture was continued for 3 hours at 5% CO2, 37° C., and 100% humidity.
(§4) Meso Scale Discovery's 96-Well Multi-Spot Phospho-AKT (Ser473) Assay (K151CAA-3) and Phospho (Ser240/244)/Total S6RP Assay (K11139D-2) were used. In advance, a necessary amount of the supplied cell extract buffer was dispensed, and protease inhibitor cocktail and protein phosphatase inhibitor cocktail were added thereto, and kept cold on ice. The culture plates of the cells cultured with the compounds for 3 hours were taken out and the medium was removed. 100 μL of the cell extract buffer kept cold was added per well, followed by extraction by shaking at 300 r.p.m. for 1 hour using a plate shaker while maintaining a temperature of 4° C. Using the obtained extracts at 40 μL/well for the Phospho-AKT (Ser473) Assay and at 15 μL/well for the Phospho(Ser240/244)/Total S6RP Assay, reactions were conducted at 4° C. overnight with shaking at 300 r.p.m. according to the document attached to the kits. The next day, after the wells were washed three times with the supplied wash buffer, 50 μL/well of SULFO-TAG™ sandwich antibody solution was added, and reactions were carried out at room temperature for 1 hour. The wells were washed with the wash buffer three times, and 150 μL of the supplied Read Buffer T was added to each well. The amounts of phosphorylation of AKT and S6RP were measured by a SECTOR Imager 6000 plate reader (manufactured by Meso Scale Discovery) within 30 minutes of the Read Buffer T addition.
(§5) The extraction buffer-only background was subtracted from all of the measurement values, and AKT and S6RP phosphorylation signals in the control cell extract treated with only DMSO were defined as 100%. The compound concentrations and the levels of phosphorylated AKT and S6PR (expressed as a percentage relative to the control) in each concentration were plotted, and IC50 concentration (nM) that achieves 50% inhibition of the control was determined.

[2] = test system: S6 ribosomal protein (S6RP) Ser240/Ser244 phosphorylation; experiment: Phosphorylated S6RP (Ser240/Ser244) inhibitory activity in cultured cell A2780 (Meso Scale Discovery assay); format: cell-based; details: A2780 cells, 3 hours treatment; average±standard deviation of three independent runs
Description: as §1, §2, §3, §4, §5

human AKT2 = human AKT2 (Homo sapiens (Human), UniProt P31751); experiment: AKT2 kinase activity inhibition (TR-FRET, biotinylated Crosstide substrate); format: biochemical; details: preincubation 120 min at 25° C.; ATP 150 μM; Crosstide 500 nM
Procedure, shortened: (§6)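 Middle-T-tagged human AKT1 or AKT2, Sf9-expressed, affinity-purified and PDK1-activated, was preincubated 120 min at 25 °C with compound in 15 mM Tris-HCl pH 7.5, 0.01% Tween-20, 2 mM DTT. Kinase reaction then ran 60 min with 500 nM biotin-Crosstide, 10 mM MgCl2 and 150 μM ATP before EDTA stop. IC50 came from the Eu/APC TR-FRET 665/620 nm ratio.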

human AKT1 = human AKT1 (Homo sapiens (Human), UniProt P31749); experiment: AKT1 kinase activity inhibition (TR-FRET, biotinylated Crosstide substrate); format: biochemical; details: preincubation 120 min at 25° C.; ATP 150 μM; Crosstide 500 nM
Procedure, shortened: as §6

Chain of human AKT2 (P31751 whole entry): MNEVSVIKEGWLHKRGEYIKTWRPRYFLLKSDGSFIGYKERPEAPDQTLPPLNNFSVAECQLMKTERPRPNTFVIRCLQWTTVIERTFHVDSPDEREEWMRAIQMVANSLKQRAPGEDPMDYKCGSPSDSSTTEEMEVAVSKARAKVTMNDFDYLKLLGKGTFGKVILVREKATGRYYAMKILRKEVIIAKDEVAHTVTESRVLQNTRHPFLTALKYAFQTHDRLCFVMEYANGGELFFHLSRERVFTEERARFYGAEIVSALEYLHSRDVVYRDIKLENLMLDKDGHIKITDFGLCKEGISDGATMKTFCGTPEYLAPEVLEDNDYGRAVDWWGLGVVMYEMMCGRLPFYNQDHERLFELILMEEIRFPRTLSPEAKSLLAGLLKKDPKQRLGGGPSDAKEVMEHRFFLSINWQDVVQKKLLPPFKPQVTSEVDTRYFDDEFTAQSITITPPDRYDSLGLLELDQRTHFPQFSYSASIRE
Chain of human AKT1 (P31749 whole entry): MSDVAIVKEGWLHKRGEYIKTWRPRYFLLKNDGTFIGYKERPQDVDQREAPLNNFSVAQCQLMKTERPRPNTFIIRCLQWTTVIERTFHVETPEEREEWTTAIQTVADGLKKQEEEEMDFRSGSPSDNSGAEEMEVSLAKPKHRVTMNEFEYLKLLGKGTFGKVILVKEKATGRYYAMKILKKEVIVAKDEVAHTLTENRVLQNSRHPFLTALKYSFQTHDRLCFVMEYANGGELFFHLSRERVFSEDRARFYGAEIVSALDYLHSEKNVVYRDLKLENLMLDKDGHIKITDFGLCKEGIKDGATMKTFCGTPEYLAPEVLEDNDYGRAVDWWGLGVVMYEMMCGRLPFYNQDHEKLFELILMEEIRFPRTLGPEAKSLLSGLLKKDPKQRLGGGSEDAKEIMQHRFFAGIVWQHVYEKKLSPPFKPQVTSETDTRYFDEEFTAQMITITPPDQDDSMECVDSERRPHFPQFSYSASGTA

Compound `C[C@]1(O)C[C@@](N)(c2ccc(-c3nc4n(c3-c3ccccc3)COc3ccc(-c5ccn[nH]5)cc3-4)cc2)C1` [Example 48, trans-3-amino-1-methyl-3-(4-(3-phenyl-9-(1H-pyrazol-5-yl)-5H-benzo[e]imidazo[1,2-c][1,3]oxazin-2-yl)phenyl)cyclobutanol] has an IC50 [1] of 48 ± 5 nM, an IC50 [2] of 86 ± 27 nM and an IC50 (human AKT2) of 0.32 nM. It also gave an IC50 (human AKT1) of 0.8 nM.

With `CNC(=O)c1ccc2c(c1)OCn1c-2nc(-c2ccc([C@]3(N)C[C@](C)(O)C3)cc2)c1-c1ccccc1` [Example 56, 2-(4-(trans-1-amino-3-hydroxy-3-methylcyclobutyl)phenyl)-N-methyl-3-phenyl-5H-benzo[e]imidazo[1,2-c][1,3]oxazine-8-carboxamide] the IC50 [1] was 25 ± 3 nM, the IC50 [2] was 38 ± 12 nM and the IC50 (human AKT2) was 0.49 nM. For the same compound, the IC50 (human AKT1) was 1.8 nM.

`CCONC(=O)c1ccc2c(c1)OCn1c-2nc(-c2ccc([C@]3(N)C[C@](C)(O)C3)cc2)c1-c1ccccc1` [Example 59, 2-(4-(trans-1-amino-3-hydroxy-3-methylcyclobutyl)phenyl)-N-ethoxy-3-phenyl-5H-benzo[e]imidazo[1,2-c][1,3]oxazine-8-carboxamide] showed an IC50 [1] of 26 ± 3 nM, an IC50 [2] of 42 ± 14 nM and an IC50 (human AKT2) of 0.53 nM. The IC50 (human AKT1) was 2.1 nM.
